The record followed here is ChEMBL document CHEMBL4342498, “Design and Discovery of an Orally Efficacious Spiroindolinone-Based Tankyrase Inhibitor for the Treatment of Colon Cancer” (J Med Chem, 2020).

Structures are written as SMILES.

As usually defined, the efflux ratio is the permeability from basolateral to apical divided by that in the opposite direction, in the common usage. For orientation: Tmax means the time from dosing to the highest level. In general, half-life refers to the time in which the quantity being followed falls by half. Low values mean fast loss, high ones slow loss. As usually defined, the IC50 is the concentration that gives 50% inhibition. Lower therefore signals higher potency.

The nature of data set [1]: Stability in mouse liver microsomes assessed as parent compound remaining at 1 uM measured after 30 mins in presence of NADPH by LC-MS/MS analysis. The class given is ADME, Microsome. The conditions noted are these: read-out: Stability. A general note: Microsomes from liver hold many membrane-bound enzymes, among them those of drug oxidation.
Data set [2] in a line: Stability in mouse liver microsomes assessed as parent compound remaining at 1 uM measured after 60 mins in presence of NADPH by LC-MS/MS analysis. It counts as ADME, Microsome. The conditions noted are these: read-out: Stability.
Data set [3] can be described thus: Stability in rat liver microsomes assessed as parent compound remaining at 1 uM measured after 30 mins in presence of NADPH by LC-MS/MS analysis. It counts as ADME, Microsome. To be noted: read-out: Stability.
Data set [4] can be described thus: Stability in rat liver microsomes assessed as parent compound remaining at 1 uM measured after 60 mins in presence of NADPH by LC-MS/MS analysis. The conditions noted are these: read-out: Stability. It counts as ADME, Microsome.
Data set [5] has as its system MDR1. Put plainly: Efflux ratio of permeability across basolateral to apical side over apical to basolateral side in MDCK2-MDR1 cells. It counts as ADME, cell-based, Canis lupus familiaris. The conditions noted are these: dog, MDCK-MDR1.
A short description of data set [6]: Net efflux ratio of permeability across basolateral to apical side over apical to basolateral side in MDCK2-MDR1 cells to MDCK2 cells. The class given is ADME, cell-based, Canis lupus familiaris. To be noted: dog, mdck.
A short description of data set [7]: Tmax in ICR mouse at 50 mg/kg, ip. The class given is ADME, organism-based. To be noted: in vivo.
Data set [8] can be described thus: Half life in ICR mouse at 50 mg/kg, ip. The class given is ADME, organism-based. To be noted: in vivo.
Data set [9] can be described thus: Tmax in ICR mouse at 50 mg/kg, po. The class given is ADME, organism-based. To be noted: in vivo.
Data set [10] in a line: Half life in ICR mouse at 50 mg/kg, po. The class given is ADME, organism-based. To be noted: in vivo.
Data set [11] has as its target T1, Poly [ADP-ribose] polymerase tankyrase-1 (Homo sapiens, UniProt O95271).
T1 sequence (O95271 whole entry): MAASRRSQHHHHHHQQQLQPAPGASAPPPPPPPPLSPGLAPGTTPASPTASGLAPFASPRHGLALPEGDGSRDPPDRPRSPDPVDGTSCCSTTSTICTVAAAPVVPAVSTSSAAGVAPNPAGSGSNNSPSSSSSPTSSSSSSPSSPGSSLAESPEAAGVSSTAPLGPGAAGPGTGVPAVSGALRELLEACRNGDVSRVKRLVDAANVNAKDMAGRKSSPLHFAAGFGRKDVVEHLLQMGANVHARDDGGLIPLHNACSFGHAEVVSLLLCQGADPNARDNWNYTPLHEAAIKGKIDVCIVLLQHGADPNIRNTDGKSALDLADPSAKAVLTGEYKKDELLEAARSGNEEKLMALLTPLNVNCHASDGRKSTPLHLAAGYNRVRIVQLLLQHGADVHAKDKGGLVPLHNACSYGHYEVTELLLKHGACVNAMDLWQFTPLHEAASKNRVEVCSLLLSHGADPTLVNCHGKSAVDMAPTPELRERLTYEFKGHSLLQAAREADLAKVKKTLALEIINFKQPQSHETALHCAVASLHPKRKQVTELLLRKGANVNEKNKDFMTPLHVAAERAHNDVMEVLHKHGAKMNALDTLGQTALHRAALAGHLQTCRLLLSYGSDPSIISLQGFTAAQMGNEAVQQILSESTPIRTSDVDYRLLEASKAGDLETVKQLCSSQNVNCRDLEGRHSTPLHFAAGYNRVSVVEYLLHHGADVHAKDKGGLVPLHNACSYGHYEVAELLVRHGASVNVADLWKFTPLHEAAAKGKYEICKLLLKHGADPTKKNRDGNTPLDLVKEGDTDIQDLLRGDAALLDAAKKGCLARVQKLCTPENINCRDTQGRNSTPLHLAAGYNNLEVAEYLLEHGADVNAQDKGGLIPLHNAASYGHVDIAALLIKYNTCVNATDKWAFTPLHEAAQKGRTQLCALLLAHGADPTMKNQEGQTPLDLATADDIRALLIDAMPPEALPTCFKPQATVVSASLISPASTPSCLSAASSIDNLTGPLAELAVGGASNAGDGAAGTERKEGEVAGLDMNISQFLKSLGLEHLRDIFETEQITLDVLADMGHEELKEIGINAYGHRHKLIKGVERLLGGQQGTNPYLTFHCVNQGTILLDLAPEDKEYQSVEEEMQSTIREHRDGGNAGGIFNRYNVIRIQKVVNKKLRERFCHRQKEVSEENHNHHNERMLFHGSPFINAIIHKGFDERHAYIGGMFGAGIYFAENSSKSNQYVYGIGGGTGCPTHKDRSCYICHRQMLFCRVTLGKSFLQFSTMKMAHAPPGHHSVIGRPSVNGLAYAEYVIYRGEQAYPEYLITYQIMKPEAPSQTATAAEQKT
Description: Inhibition of recombinant human N-terminal TEV cleavage site-fused/FLAG-poly his-tagged TNKS SAM-PARP domain (1024 to 1327 residues) expressed in Escherichia coli assessed as reduction in auto-PARylation preincubated for 10 mins followed by biotinylated-NAD+ addition and measured after 45 mins by ELISA

Data set [12] has as its target T2, Tankyrase 1/2 (Homo sapiens, UniProt Q9H2K2+O95271).
T2 sequence (Q9H2K2 whole entry): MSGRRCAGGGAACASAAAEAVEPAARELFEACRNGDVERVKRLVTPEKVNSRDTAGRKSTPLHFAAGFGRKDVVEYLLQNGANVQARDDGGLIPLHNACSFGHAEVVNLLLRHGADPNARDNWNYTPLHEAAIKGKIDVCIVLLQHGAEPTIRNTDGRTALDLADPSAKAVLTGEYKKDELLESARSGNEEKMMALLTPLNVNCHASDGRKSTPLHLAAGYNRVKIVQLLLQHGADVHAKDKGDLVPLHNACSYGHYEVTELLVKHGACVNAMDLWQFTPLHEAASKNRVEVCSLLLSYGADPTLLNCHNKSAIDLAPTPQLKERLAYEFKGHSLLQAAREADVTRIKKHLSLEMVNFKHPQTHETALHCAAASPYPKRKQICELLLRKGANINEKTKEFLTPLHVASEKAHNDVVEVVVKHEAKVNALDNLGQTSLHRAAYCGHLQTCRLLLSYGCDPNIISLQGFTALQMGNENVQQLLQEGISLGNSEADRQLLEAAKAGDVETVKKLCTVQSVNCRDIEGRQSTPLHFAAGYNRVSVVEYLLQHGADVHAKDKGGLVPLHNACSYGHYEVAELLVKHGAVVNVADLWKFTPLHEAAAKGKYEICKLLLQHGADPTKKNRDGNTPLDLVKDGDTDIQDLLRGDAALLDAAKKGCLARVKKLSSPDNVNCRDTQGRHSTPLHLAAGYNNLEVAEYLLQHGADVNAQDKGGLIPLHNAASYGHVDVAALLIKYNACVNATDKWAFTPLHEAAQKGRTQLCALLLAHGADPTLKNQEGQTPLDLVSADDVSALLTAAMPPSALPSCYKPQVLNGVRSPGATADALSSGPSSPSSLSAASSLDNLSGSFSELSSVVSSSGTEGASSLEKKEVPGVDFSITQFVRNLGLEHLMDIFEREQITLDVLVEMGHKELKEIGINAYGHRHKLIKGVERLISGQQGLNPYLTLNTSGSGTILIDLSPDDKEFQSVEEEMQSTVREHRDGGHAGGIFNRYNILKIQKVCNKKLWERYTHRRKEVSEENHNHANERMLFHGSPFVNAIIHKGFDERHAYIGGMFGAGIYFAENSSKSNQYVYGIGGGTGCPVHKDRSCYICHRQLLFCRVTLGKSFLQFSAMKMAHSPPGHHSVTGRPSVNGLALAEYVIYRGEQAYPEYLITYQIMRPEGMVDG
T2 sequence (O95271 whole entry): T1 sequence (O95271 whole entry)
Description: Inhibition of TNKS/TNKS2 (unknown origin) expressed in human DLD1 cells assessed as reduction in Wnt-signaling measured after 24 hrs by TCF-luciferase reporter gene assay

Turning to `CN1CCN(c2cc(F)c3c(c2)N(C)C(=O)C32CCN(c3nc4c(c(=O)[nH]3)CCCN4C)CC2)CC1`, the remaining at 0.5 h, 1 µM in data set [1] worked out at 54.9%; in data set [3], 80.2%. Also, the remaining at 1 h, 1 µM was 30.5 to 54.5% in [2] and 65.3% in data set [4]. Also, the efflux ratio in data set [5] was 13.2. The Ratio in data set [6] is listed as 4.3. Further, the figures for the Tmax in [7] and in data set [9] were 0.5 h and 0.25 h, respectively. Also, the half-life in [8] is 2.5 h; in data set [10], 4 h. For the same molecule, the IC50 in data set [11] is 7.7 nM; in data set [12], 8.4 nM.

With `C[C@@H]1CN(c2cc(F)c3c(c2)N(C)C(=O)C32CCN(c3nc4c(c(=O)[nH]3)CCCN4C)CC2)C[C@H](C)O1`, the remaining at 0.5 h, 1 µM in [1] was 49.7%; in [3] it was 57.3%. Also, the values for the remaining at 1 h, 1 µM in data set [2] and in data set [4] were 28.7 to 55.9% and 44%, respectively. In addition, in [5], the efflux ratio worked out at 1. Also, in data set [6], the Ratio turned out to be 1.1. The Tmax in [7] and in data set [9] was 1 h throughout. Besides, the figures for the half-life in [8] and in data set [10] were 1.9 h and 1.8 h, respectively. Moreover, the IC50 in [11] amounted to 36.1 nM; in [12], 3.1 nM.
